# Laboratory results published in paper PMC8509773, “3-Pyridinylidene Derivatives of Chemically Modified Lupane and Ursane Triterpenes as Promising Anticancer Agents by Targeting Apoptosis” (International Journal of Molecular Sciences, 2021).
# Marks after values point to notes of the source that are not given here.
# Key:
# [1] = test system: NCI-60 cancer cell line panel; experiment: NCI-60 cancer cell line panel screening (whole panel / subpanels); type: cell-based; conditions: for Selectivity index (SI): full panel MG_MID / subpanel MG_MID; for GI50: Homo sapiens, five-dose testing, all cell lines, read-out: GI50 values, range over the NCI-60 panel
# Protocol: At first, compounds were tested in a single high dose concentration regimen (10 µM) against a panel of sixty various cancer cell lines; the results of the screening are outlined in Table 1 in the form of percent growth (GP %) of treated cells versus untreated cells used as control, where negative numbers indicate cell kill. The experimental results of growth inhibition may range from 0 to 100 and indicate a cytostatic effect while negative values indicate cell death and thus a cytotoxic activity (for NCI data see Supplementary Material Figures S6–S12).
# The selectivity index (SI) was calculated by dividing the full panel MG_MID60 (μM) of tested compounds by their individual subpanel MG_MID of the cell line (μM); it correlates directly to the selectivity of their anticancer activity (Table 3). […] By contrast, despite its strong antiproliferative effect, compound 7 acts with low selectivity against the various human tumor cell lines, the highest SI value being 1.73.
# Compounds 1, 2, and 4–8 were tested at one dose assay (10^−5 M) toward a panel of approximately sixty cancer cell lines representing different cancer types: leukemia, melanoma, lung, colon, CNS, ovarian, renal, prostate, and breast cancers. Primary anticancer assays were performed according to the NCI protocol as described elsewhere (see, e.g., http://dtp.nci.nih.gov accessed on 16 October 2019). The compounds were added at a single concentration and the cell cultures were incubated for 48 h. The end point determinations were made with a protein binding dye, sulforhodamine B (SRB). The results for each compound are reported as the percent growth (GP %) of treated cells compared to untreated control cells (negative numbers indicate cell kill). Compounds with considerable activity against all tested human tumor cell lines (6 and 7) were selected for the advanced assay against a panel of approximately sixty tumor cell lines at 10-fold dilutions of five concentrations (100 µM, 10 µM, 1 µM, 0.1 µM, and 0.01 µM). The percentage of growth was evaluated spectrophotometrically versus controls not treated with test agents after 48-h exposure and using SRB protein assay to estimate cell viability or growth. Three antitumor activity dose–response parameters were calculated for each cell line: GI50—molar concentration of the compound that inhibits 50% net cell growth; TGI—molar concentration of the compound leading to the total inhibition; and LC50—molar concentration of the compound leading to 50% net cell death (presented in negative logarithm). Furthermore, mean graph midpoints (MG_MID) were calculated for each of the parameters, giving an average activity parameter over all cell lines for the tested compound. For the MG_MID calculation, insensitive cell lines were included with the highest concentration tested.
# Bak gene = experiment: rtPCR gene expression in Sk-Mel-28 cells; type: cell-based, human
# Text: (§1) We applied rtPCR techniques in order to investigate the effect of our two compounds on the anti-apoptotic Bcl-XL and Bcl-2 genes as well as the proapoptotic Bak and Bad genes (Table 4). […] Therefore, we may presume that the apoptotic mechanism of both compounds against the A375 cells is not mediated by the tested genes or that alterations in their ratio are the underlying mechanism.
# Bcl-XL gene = experiment: rtPCR gene expression in Sk-Mel-28 cells; type: cell-based, human
# Text: as §1
# U251 = experiment: NCI-60 SRB screening (one-dose and five-dose); type: cell-based, human; conditions: 48 h; for GI50: Homo sapiens, U-251, U251, five dose 0.01–100 μM; for Growth Percent: U251, 10 μM
# Method in brief: (§2)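 Cells are treated with test compound at a single concentration for 48 h, then stained with SRB; optical readings relative to untreated wells estimate viability or growth.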
# SF-268 = experiment: NCI-60 SRB screening (one-dose and five-dose); type: cell-based, human; conditions: 48 h; for GI50: Homo sapiens, SF-268, five dose 0.01–100 μM; for Growth Percent: SF-268, 10 μM
# Method in brief: as §2
# HT29 = experiment: NCI-60 SRB screening (one-dose and five-dose); type: cell-based, human; conditions: 48 h; for Growth Percent: HT29, 10 μM; for GI50: Homo sapiens, HT-29, HT29, five dose 0.01–100 μM
# Method in brief: (§3)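 Growth inhibition is scored with sulforhodamine B after 48 h of continuous compound exposure. An MG_MID averages each parameter over the whole cell panel, insensitive lines being counted at the top tested concentration.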
# NCI-H460 = experiment: NCI-60 SRB screening (one-dose and five-dose); type: cell-based, human; conditions: 48 h; for GI50: Homo sapiens, NCI-H460, five dose 0.01–100 μM; for Growth Percent: NCI-H460, 10 μM
# Method in brief: as §3
# SF-539 = experiment: NCI-60 SRB screening (one-dose and five-dose); type: cell-based, human; conditions: 48 h; for GI50: Homo sapiens, SF-539, five dose 0.01–100 μM; for Growth Percent: SF-539, 10 μM
# Method in brief: as §3
# OVCAR-8 = experiment: NCI-60 SRB screening (one-dose and five-dose); type: cell-based, human; conditions: 48 h; for GI50: Homo sapiens, OVCAR-8, five dose 0.01–100 μM; for Growth Percent: OVCAR-8, 10 μM
# Method in brief: as §3
# ACHN = experiment: NCI-60 SRB screening (one-dose and five-dose); type: cell-based, human; conditions: 48 h; for Growth Percent: 10 μM; for GI50: Homo sapiens, five dose 0.01–100 μM
# Method in brief: as §3
# SK-OV-3 = experiment: NCI-60 SRB screening (one-dose and five-dose); type: cell-based, human; conditions: 48 h; for GI50: Homo sapiens, SK-OV-3, five dose 0.01–100 μM; for Growth Percent: SK-OV-3, 10 μM
# Method in brief: as §3
# EKVX = experiment: NCI-60 SRB screening (one-dose and five-dose); type: cell-based, human; conditions: 48 h; for Growth Percent: 10 μM; for GI50: Homo sapiens, five dose 0.01–100 μM
# Method in brief: as §3
# HCT-116 = experiment: NCI-60 SRB screening (one-dose and five-dose); type: cell-based, human; conditions: 48 h; for Growth Percent: HCT-116, 10 μM; for GI50: Homo sapiens, HCT-116, five dose 0.01–100 μM
# Method in brief: as §3
# SR = experiment: NCI-60 SRB screening (one-dose and five-dose); type: cell-based, human; conditions: 48 h; for GI50: Homo sapiens, five dose 0.01–100 μM
# Method in brief: as §2
# HCT-15 = experiment: NCI-60 SRB screening (one-dose and five-dose); type: cell-based, human; conditions: 48 h; for Growth Percent: HCT-15, 10 μM; for GI50: Homo sapiens, HCT-15, five dose 0.01–100 μM
# Method in brief: as §3
# COLO 205 = experiment: NCI-60 SRB screening (one-dose and five-dose); type: cell-based, human; conditions: 48 h; for Growth Percent: COLO 205, 10 μM; for GI50: Homo sapiens, COLO 205, five dose 0.01–100 μM
# Method in brief: as §3
# IGROV1 = experiment: NCI-60 SRB screening (one-dose and five-dose); type: cell-based, human; conditions: 48 h; for GI50: Homo sapiens, IGROV-1, IGROV1, five dose 0.01–100 μM; for Growth Percent: IGROV1, 10 μM
# Method in brief: as §3
# KM-12 = experiment: NCI-60 SRB screening (one-dose and five-dose); type: cell-based, human; conditions: 48 h; for GI50: Homo sapiens, KM12, KM-12, five dose 0.01–100 μM; for Growth Percent: KM-12, 10 μM
# Method in brief: as §3
# SK-MEL-2 = experiment: NCI-60 SRB screening (one-dose and five-dose); type: cell-based, human; conditions: 48 h; for GI50: Homo sapiens, SK-MEL-2, five dose 0.01–100 μM; for Growth Percent: SK-MEL-2, 10 μM
# Method in brief: as §3
# CAKI-1 = experiment: NCI-60 SRB screening (one-dose and five-dose); type: cell-based, human; conditions: 48 h; for Growth Percent: CAKI-1, 10 μM; for GI50: Homo sapiens, CAKI-1, five dose 0.01–100 μM
# Method in brief: as §3
# MDA-MB-468 = experiment: NCI-60 SRB screening (one-dose and five-dose); type: cell-based, human; conditions: 48 h; for GI50: Homo sapiens, MDA-MB-468, five dose 0.01–100 μM; for Growth Percent: MDA-MB-468, 10 μM
# Method in brief: as §3
# MDA-MB-435 = experiment: NCI-60 SRB screening (one-dose and five-dose); type: cell-based, human; conditions: 48 h; for GI50: Homo sapiens, MDA-MB-435, MDA-B-435, five dose 0.01–100 μM; for Growth Percent: MDA-MB-435, 10 μM
# Method in brief: as §3
# K-562 = experiment: NCI-60 SRB screening (one-dose and five-dose); type: cell-based, human; conditions: 48 h; for GI50: Homo sapiens, K562, K-562, five dose 0.01–100 μM; for Growth Percent: K-562, 10 μM
# Method in brief: as §2
# [2] = Non-Small Cell Lung Cancer subpanel
structure (smiles),measurement,setting,value
"C[C@H]1[C@@H]2[C@H]3CC[C@@H]4[C@@]5(C)C/C(=C\c6cccnc6)C(=O)C(C)(C)[C@@H]5CC[C@@]4(C)[C@]3(C)CC[C@]23CO[C@@]1(C)[C@@H](C(=O)/C=C/c1cccnc1)C3 [Compound 6, 3-Oxo-2-(3-pyridinylidene)-21-[3-(2E-pyridinyl)-prop-2-en-1-one]-20β,28-epoxy-18α,19βH-ursane]",Selectivity index (SI),[1]; Breast Cancer subpanel,0.96
same,Selectivity index (SI),[1]; CNS Cancer subpanel,0.96
same,Selectivity index (SI),[1]; Colon Cancer subpanel,1.10
same,GI50,[1],30 to 5900 nM
same,Selectivity index (SI),[1]; Leukemia subpanel,5.30
same,Selectivity index (SI),[1]; Melanoma subpanel,1.01
same,Selectivity index (SI),[1]; [2],0.87
same,Selectivity index (SI),[1]; Ovarian Cancer subpanel,0.57
same,Selectivity index (SI),[1]; Prostate Cancer subpanel,1.86
same,Selectivity index (SI),[1]; Renal Cancer subpanel,1.01
same,"Bak gene expression, Mean",Bak gene,22.826 ***
same,"Bcl-XL gene expression, Mean",Bcl-XL gene,1.606
same,GI50,U251,1040 nM
same,Growth Percent,U251,−68.02%
same,GI50,SF-268,1310 nM
same,Growth Percent,SF-268,7.10%
same,Growth Percent,HT29,26.36%
same,GI50,HT29,1500 nM
same,GI50,NCI-H460,890 nM
same,Growth Percent,NCI-H460,−45.33%
same,GI50,SF-539,1020 nM
same,Growth Percent,SF-539,−32.36%
same,GI50,OVCAR-8,1600 nM
same,Growth Percent,OVCAR-8,−13.55%
same,Growth Percent,ACHN,−22.16%
same,GI50,ACHN,1410 nM
same,GI50,SK-OV-3,5900 nM
same,Growth Percent,SK-OV-3,58.93%
same,Growth Percent,EKVX,−1.58%
same,GI50,EKVX,1720 nM
same,Growth Percent,HCT-116,−45.63%
same,GI50,HCT-116,230 nM
same,GI50,SR,160 nM
same,Growth Percent,HCT-15,−15.30%
same,GI50,HCT-15,1110 nM
same,Growth Percent,COLO 205,−56.84%
same,GI50,COLO 205,1430 nM
same,GI50,IGROV1,960 nM
same,Growth Percent,IGROV1,1.25%
same,GI50,KM-12,910 nM
same,Growth Percent,KM-12,−55.61%
same,GI50,SK-MEL-2,1300 nM
same,Growth Percent,SK-MEL-2,−25.53%
same,Growth Percent,CAKI-1,9.32%
same,GI50,CAKI-1,1420 nM
same,GI50,MDA-MB-468,860 nM
same,Growth Percent,MDA-MB-468,−5.83%
same,GI50,MDA-MB-435,1090 nM
same,Growth Percent,MDA-MB-435,−7.30%
same,GI50,K-562,30 nM
same,Growth Percent,K-562,6.51%
"COC(=O)[C@]12CC[C@@H](C(=O)/C=C/c3cccnc3)[C@@H]1[C@H]1CC[C@@H]3[C@@]4(C)C/C(=C\c5cccnc5)C(=O)C(C)(C)[C@@H]4CC[C@@]3(C)[C@]1(C)CC2 [Compound 7, methyl 2,30-bis-(3-pyridinylidene)-3,20-dioxo-lup-28-oate]",Selectivity index (SI),[1]; Breast Cancer subpanel,1.34
same,Selectivity index (SI),[1]; CNS Cancer subpanel,0.72
same,Selectivity index (SI),[1]; Colon Cancer subpanel,1.07
same,GI50,[1],180 to 1530 nM
same,Selectivity index (SI),[1]; Leukemia subpanel,1.73
same,Selectivity index (SI),[1]; Melanoma subpanel,1.59
same,Selectivity index (SI),[1]; [2],0.65
same,Selectivity index (SI),[1]; Ovarian Cancer subpanel,0.98
same,Selectivity index (SI),[1]; Prostate Cancer subpanel,0.50
same,Selectivity index (SI),[1]; Renal Cancer subpanel,1.23
same,"Bak gene expression, Mean",Bak gene,59.543 **
same,"Bcl-XL gene expression, Mean",Bcl-XL gene,3.826
same,GI50,U251,360 nM
same,Growth Percent,U251,−87.90%
same,GI50,SF-268,1010 nM
same,Growth Percent,SF-268,−80.80%
same,Growth Percent,HT29,−45.47%
same,GI50,HT29,320 nM
same,GI50,NCI-H460,830 nM
same,Growth Percent,NCI-H460,−78.43%
same,GI50,SF-539,240 nM
same,Growth Percent,SF-539,−96.48%
same,GI50,OVCAR-8,340 nM
same,Growth Percent,OVCAR-8,−34.25%
same,Growth Percent,ACHN,−100.00%
same,GI50,ACHN,190 nM
same,GI50,SK-OV-3,1430 nM
same,Growth Percent,SK-OV-3,−23.10%
same,Growth Percent,EKVX,−76.32%
same,GI50,EKVX,410 nM
same,Growth Percent,HCT-116,−87.45%
same,GI50,HCT-116,200 nM
same,Growth Percent,SR; 10 μM,−14.07%
same,GI50,SR,270 nM
same,Growth Percent,HCT-15,−46.22%
same,GI50,HCT-15,240 nM
same,Growth Percent,COLO 205,−45.07%
same,GI50,COLO 205,360 nM
same,GI50,IGROV1,270 nM
same,Growth Percent,IGROV1,−87.88%
same,GI50,KM-12,1080 nM
same,Growth Percent,KM-12,−74.98%
same,GI50,SK-MEL-2,470 nM
same,Growth Percent,SK-MEL-2,-61.15%
same,Growth Percent,CAKI-1,−78.75%
same,GI50,CAKI-1,1090 nM
same,GI50,MDA-MB-468,270 nM
same,Growth Percent,MDA-MB-468,−76.12%
same,GI50,MDA-MB-435,200 nM
same,Growth Percent,MDA-MB-435,−69.71%
same,GI50,K-562,330 nM
same,Growth Percent,K-562,−21.61%
